The results in this text go back to patent publication US10214512B2, “Factor XIA inhibitors” (MERCK SHARP & DOHME CORP., priority 2015, dated 2019).

The target in assay [1] is purified Human plasma Kallikrein (Homo sapiens (Human), UniProt P03952). Kind of assay: Kallikrein Assay. It counts as biochemical. Conditions: purified Human plasma Kallikrein 0.5 nM; substrate Acetyl-K-P-R-AFC; 50 mM HEPES pH 7.4; Ki from IC50 by Cheng Prusoff. The protocol: (§1) The effectiveness of a compound of the present invention as an inhibitor of Kallikrein can be determined using a relevant purified serine protease, and an appropriate synthetic substrate. The rate of hydrolysis of the chromogenic or fluorogenic substrate by the relevant serine protease was measured both in the absence and presence of compounds of the present invention. Assays were conducted at rt or at 37° C. […] A decrease in the rate of fluorescence change in the presence of inhibitor is indicative of enzyme inhibition. Such methods are known to one skilled in the art. The results of this assay are expressed as the inhibitory constant, Ki.
Chain of purified Human plasma Kallikrein (P03952 391-638): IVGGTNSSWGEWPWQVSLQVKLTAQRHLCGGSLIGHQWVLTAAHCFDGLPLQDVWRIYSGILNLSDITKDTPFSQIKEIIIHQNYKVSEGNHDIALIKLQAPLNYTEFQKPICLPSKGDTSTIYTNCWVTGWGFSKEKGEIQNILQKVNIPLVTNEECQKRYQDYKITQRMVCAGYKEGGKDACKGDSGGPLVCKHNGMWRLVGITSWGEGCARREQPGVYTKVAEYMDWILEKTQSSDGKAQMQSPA
Chain of purified Human plasma Kallikrein (P03952 20-390 partner): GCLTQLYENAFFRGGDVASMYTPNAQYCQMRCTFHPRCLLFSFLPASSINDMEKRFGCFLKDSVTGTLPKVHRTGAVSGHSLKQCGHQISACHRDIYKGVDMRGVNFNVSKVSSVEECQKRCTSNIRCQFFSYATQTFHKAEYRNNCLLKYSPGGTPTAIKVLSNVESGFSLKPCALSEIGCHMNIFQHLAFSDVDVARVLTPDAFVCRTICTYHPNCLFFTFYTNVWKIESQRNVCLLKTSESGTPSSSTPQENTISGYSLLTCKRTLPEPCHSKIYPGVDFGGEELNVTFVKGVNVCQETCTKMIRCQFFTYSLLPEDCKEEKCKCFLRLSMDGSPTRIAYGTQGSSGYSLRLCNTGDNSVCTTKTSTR
Kallikrein determinations were made in 50 mM HEPES buffer at pH 7.4 containing 150 mM NaCl, 5 mM CaCl2, and 0.1% PEG 8000 (polyethylene glycol; Fisher Scientific). Determinations were made using purified Human plasma Kallikrein at a final concentration of 0.5 nM (Enzyme Research Laboratories) and the synthetic substrate, Acetyl-K-P-R-AFC (Sigma # C6608) at a concentration of […].
Times required to achieve equilibration between enzyme and inhibitor were determined in control experiments. […] IC50 was determined by inflection point from a four parameter logistic curve fit. Ki was calculated using the Cheng Prusoff equation, Ki=IC50/(1+([S]/Km)).

Assay [2] concerns the target purified human Factor XIa (Homo sapiens (Human), UniProt P03951). As to the kind of experiment: Factor XIa Assay. It counts as biochemical. Conditions: purified human Factor XIa 40 pM; substrate Z-Gly-Pro-Arg-AFC 100 μM; 50 mM HEPES pH 7.4; read-out: Human FXIa Ki. The protocol: as §1, with “Coagulation Factor XIa” for “Kallikrein”
Factor XIa determinations were made in 50 mM HEPES buffer at pH 7.4 containing 150 mM NaCl, 5 mM CaCl2, and 0.1% PEG 8000 (polyethylene glycol; JT Baker or Fisher Scientific). Determinations were made using purified human Factor XIa at a final concentration of 40 pM (Sekisui Diagnostics) and he synthetic substrate, Z-Gly-Pro-Arg-AFC, TFA salt (Sigma #C0980) at a concentration of 100 μM.
Times required to achieve equilibration between enzyme and inhibitor were determined in control experiments. Initial velocities of product formation in the absence (Vo) or presence of inhibitor (Vi) were measured. Assuming competitive inhibition, and that unity is negligible compared Km/[S], [I]/e, and [I]/e (where [S], [I], and e respectively represent the total concentrations, of substrate, inhibitor and enzyme), the equilibrium constant (Ki) for dissociation of the inhibitor from the enzyme can be obtained from the dependence of Vo/Vi on [I] shown in the following equation.

SMILES strings stand for the structures.

Chain of purified human Factor XIa (P03951 388-625): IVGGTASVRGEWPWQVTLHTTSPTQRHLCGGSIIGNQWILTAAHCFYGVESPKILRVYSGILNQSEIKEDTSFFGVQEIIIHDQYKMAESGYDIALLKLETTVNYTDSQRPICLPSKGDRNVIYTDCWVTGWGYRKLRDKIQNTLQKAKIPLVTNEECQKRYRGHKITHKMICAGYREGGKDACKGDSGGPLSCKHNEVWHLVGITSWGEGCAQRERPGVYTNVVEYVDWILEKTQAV
Chain of purified human Factor XIa (P03951 19-387 partner): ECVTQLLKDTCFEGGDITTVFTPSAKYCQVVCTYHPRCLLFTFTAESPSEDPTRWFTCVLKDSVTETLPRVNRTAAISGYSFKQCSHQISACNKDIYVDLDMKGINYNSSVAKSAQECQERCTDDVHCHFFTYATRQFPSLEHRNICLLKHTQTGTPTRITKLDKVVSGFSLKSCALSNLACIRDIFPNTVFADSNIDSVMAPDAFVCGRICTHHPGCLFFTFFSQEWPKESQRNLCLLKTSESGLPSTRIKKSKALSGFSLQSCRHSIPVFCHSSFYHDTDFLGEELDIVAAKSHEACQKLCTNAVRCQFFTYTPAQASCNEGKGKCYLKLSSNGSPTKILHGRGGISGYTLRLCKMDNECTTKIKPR

Compound `C[C@H]1CCC[C@@H](c2ccc(-c3cc(Cl)ccc3-n3cc(C(F)(F)F)cn3)c[n+]2[O-])c2cccc(c2)-c2c(cnn2C(F)F)NC1=O` (single isomer, unassigned) [Example 168-d] had an inhibition constant (Ki) in assay [1] of 0.161 µM.

With `COC(=O)Nc1ccc2c(c1)NC(=O)C(C)CCCC(c1ccc(-c3c(F)ccc(Cl)c3F)c[n+]1[O-])c1nc-2c[nH]1` (single isomer, unassigned) [Example 114-c, (Z)-5-(3-chloro-2,6-difluorophenyl)-2-(2^4-((methoxycarbonyl)amino)-5-methyl-4-oxo-1^1H-3-aza-1(4,2)-imidazola-2(1,2) -benzenacyclononaphane-9-yl)pyridine 1-oxide], in assay [1], the Ki came out at 0.00078 µM.

With `COC(=O)Nc1ccc2c(c1)NC(=O)[C@H](C)CCC[C@H](c1ccc(-c3cc(F)ccc3OC(F)(F)F)c[n+]1[O-])c1nc-2c(C)[nH]1` (single isomer, unassigned) [Example 149-a], the affinity in assay [1] corresponds to a Ki of 0.00202 µM.

`COC(=O)Nc1ccc2c(c1)NC(=O)C(C)CCCC(c1cc(OC)c(-c3c(F)ccc(Cl)c3F)c[n+]1[O-])c1cccc-2c1` (single isomer, unassigned) [Example 88-d, 5-(3-Chloro-2,6-difluorophenyl)-4-methoxy-2-(2^4-((methoxycarbonyl)amino)-5-methyl-4-oxo-3-aza-1(1,3),2(1,2) -dibenzenacyclononaphane-9-yl)pyridine 1-oxide] returned an inhibitory constant (Ki) in assay [1] of 0.00521 µM.

For `COC(=O)Nc1ccc2c(c1)NC(=O)[C@H](C)CCC[C@H](c1ccc(-c3cc(Cl)ccc3OC(F)(F)F)c[n+]1[O-])c1cccc-2c1` (single isomer, unassigned) [Example 77-a], the Ki in assay [1] stood at 0.00169 µM.

In assay [1], `COC(=O)Nc1ccc2c(c1)NC(=O)[C@@H](C)CCC[C@H](c1ccc(-c3c(OC(F)F)ccc(F)c3F)c[n+]1[O-])c1nc-2c(C)[nH]1` (single isomer, unassigned) [Example 150-c] returned a Ki of 0.0015 µM.

`COC(=O)Nc1ccc2c(c1)NC(=O)CC[C@@H](C)C[C@H](c1ccc(-c3c(F)cccc3OC(F)F)c[n+]1[O-])c1nc-2c(C)[nH]1` (single isomer, unassigned) [Example 152-a]: affinity in assay [1] was put at a Ki of 0.00276 µM.

Compound `COC(=O)Nc1ccc2c(c1)NC(=O)CCCC[C@H](c1ccc(-c3cc(Cl)ccc3-c3cnco3)c[n+]1[O-])c1cccc-2c1` (single isomer, unassigned) [Example 35] returned a Ki in assay [1] of 0.0007 µM.

Turning to `C[C@H]1CCC[C@H](c2ccc(-c3cc(Cl)ccc3-n3cc(Cl)nn3)c[n+]2[O-])c2cccc(c2)-c2c(cnn2C(F)F)NC1=O` (single isomer, unassigned) [Example 166-c], the Ki in assay [2] worked out at 0.0094 µM.

Regarding `COC(=O)Nc1ccc2c(c1)NC(=O)CCCCC(c1ccc(-c3c(F)ccc(Cl)c3F)cn1)c1cc-2ncn1` (stereo not drawn) [Example 64, methyl (9-(5-(3-chloro-2,6-difluorophenyl)pyridin-2-yl)-4-oxo-3-aza-1(4,6)-pyrimidina-2(1,2)-benzenacyclononaphane-2^4-yl)carbamate], the inhibitory constant (Ki) in assay [2] is 0.164 µM.

Take `COC(=O)Nc1ccc2c(c1)NC(=O)CCCC[C@H](c1ccc(-c3ccccc3-n3cc(C)cn3)c[n+]1[O-])c1nc-2c(C)[nH]1` (single isomer, unassigned) [Example 140]: the Ki in assay [2] was found to be 0.04 µM.

For `O=C1CCCCC(O)(c2ccc(-c3cc(Cl)ccc3-n3cnnn3)c[n+]2[O-])c2nc(c[nH]2)-c2cc(F)ccc2N1` (single isomer, unassigned) [Example 107-a, (Z)-5-(5-Chloro-2-(1H-tetrazol-1-yl)phenyl)-2-(2^5-fluoro-9-hydroxy-4-oxo-1^1H-3-aza-1(4,2)-imidazola-2(1,2)-benzenacyclononaphane-9-yl)pyridine 1-oxide], the Ki in assay [2] was found to be 0.046 µM.

As for `O=C(C1CCCCC(c2ccc(-c3cc(Cl)ccc3-n3cnnn3)c[n+]2[O-])c2cccc(c2)-c2cc(F)ccc2N1)N1CCCC1` (single isomer, unassigned) [Example 79-a, 5-(5-Chloro-2-(1H-tetrazol-1-yl)phenyl)-2-(2^5-fluoro-4-(pyrrolidine-1-carbonyl)-3-aza-1(1,3),2(1,2)-dibenzenacyclononaphane-9-yl)pyridine 1-oxide], the Ki in assay [2] amounted to 0.0478 µM.

Turning to `C[C@H]1CCC[C@H](c2ccc(-c3ccccc3-n3cc(Cl)nn3)c[n+]2[O-])c2cccc(c2)-c2c(cnn2C(F)F)NC1=O` (single isomer, unassigned) [Example 172-b], the Ki in assay [2] stood at 0.0119 µM.

In the case of `O=C1CCCC[C@@H](c2ccc(-c3cc(Cl)ccc3-n3cnnn3)cn2)c2cccc(c2)-c2cc(F)ccc2N1` [Example 1-b, (R)-9-(5-(5-Chloro-2-(1H-tetrazol-1-yl)phenyl)pyridin-2-yl)-2^5-fluoro-3-aza-1(1,3),2(1,2)-dibenzenacyclononaphan-4-one], the Ki in assay [2] was 0.504 µM.

For the compound `C[C@@H]1CCC[C@@H](c2ccc(-c3cc(Cl)ccc3-n3cc(Cl)nn3)c[n+]2[O-])c2cccc(c2)-c2c(cnn2C(F)F)NC1=O` (single isomer, unassigned) [Example 166-b], the Ki in assay [2] was 0.195 µM.

Take `O=C1CCCCC(c2ccc(-c3c(-n4cnnn4)ccc(Cl)c3F)cn2)c2cc(ncc2F)-c2cc(F)ccc2N1` (stereo not drawn) [Example 59, 9-(5-(3-chloro-2-fluoro-6-(1h-tetrazol-1-yl)phenyl)pyridin-2-yl)-1^5,2^5-difluoro-3-aza-1(2,4)-pyridina-2(1,2)-benzenacyclononaphan-4-one]: the Ki in assay [2] stood at 0.0089 µM.

Consider `COC(=O)Nc1cc(F)c2c(c1)NC(=O)C(C)CCCC(c1ccc(-c3c(F)ccc(Cl)c3F)c[n+]1[O-])c1cccc-2c1` (single isomer, unassigned) [Example 85-d, 5-(3-Chloro-2,6-difluorophenyl)-2-(2^6-fluoro-2^4-((methoxycarbonyl)amino)-5-methyl-4-oxo-3-aza-1(1,3),2(1,2)-dibenzenacyclononaphane-9-yl)pyridine 1-oxide], for which the inhibition constant Ki in assay [2] is 0.16 µM.

Regarding `COC(=O)Nc1ccc2c(c1)NC(=O)C(C)CCCC(c1ccc(-c3c(F)ccc(Cl)c3F)c[n+]1[O-])c1cccc-2c1` (single isomer, unassigned) [Example 50-d, 5-(3-chloro-2,6-difluorophenyl)-2-(2^4-((methoxycarbonyl)amino)-5-methyl-4-oxo-3-aza-1(1,3),2(1,2)-dinenzenacyclononaphane-9-yl)pyridine 1-oxide], in assay [2], the Ki was determined as 0.209 µM.

On to `COC(=O)Nc1ccc2c(c1)NC(=O)C(C)CCCC(c1ccc(-c3c(F)ccc(Cl)c3F)c[n+]1[O-])c1cccc-2c1` (single isomer, unassigned) [Example 50-c, 5-(3-chloro-2,6-difluorophenyl)-2-(2^4-((methoxycarbonyl)amino)-5-methyl-4-oxo-3-aza-1(1,3),2(1,2)-dinenzenacyclononaphane-9-yl)pyridine 1-oxide], for which the Ki in assay [2] was 0.27 µM.

Consider `COC(=O)Nc1ccc2c(c1)NC(=O)CCCCC(c1ccc(-c3c(F)ccc(Cl)c3F)cn1)c1cc-2c(F)cn1` (stereo not drawn) [Example 60, methyl (9-(5-(3-chloro-2,6-difluorophenyl)pyridin-2-yl)-1^5-fluoro-4-oxo-3-aza-1(4,2)-pyridina-2(1,2)-benzenacyclononaphane-2^4-yl)carbamate], for which the Ki in assay [2] came out at 0.342 µM.

Regarding `COC(=O)Nc1ccc2c(c1)NC(=O)[C@H](C)CCC[C@@H](c1ccc(-c3c(F)cccc3F)c[n+]1[O-])c1nc-2c(C)[nH]1` (single isomer, unassigned) [Example 143-d], the Ki in assay [2] is 0.0186 µM.

For the compound `O=C1CCCCC(c2ccc(-c3c(F)ccc(Cl)c3F)c[n+]2[O-])c2nc(c[nH]2)-c2cc(C(=O)O)ccc2N1` (single isomer, unassigned) [Example 106-a, (Z)-2-(2^5-carboxy-4-oxo-1^1H-3-aza-1(4,2)-imidazola-2(1,2) -benzenacyclononaphane-9-yl)-5-(3-chloro-2,6-difluorophenyl)pyridine 1-oxide], the Ki in assay [2] stood at 0.00254 µM.

`COC(=O)Nc1ccc2c(c1)NC(=O)CCCCC(c1ccc(-c3c(F)ccc(Cl)c3F)cn1)c1cc(F)c(F)c-2c1` (stereo not drawn) [Example 55, methyl (9-(5-(3-chloro-2,6-difluorophenyl)pyridin-2-yl)-1^5,1^6-difluoro-4-oxo-3-aza-1(1,3),2(1,2)-dibenzenacyclononaphane-2^4-yl)carbamate]: the Ki in assay [2] is over 0.875 µM.
